This test relates to NanoLuc-PEST expressing L. mexicana axenic amastigotes. The test can be described thus: microbe, parasite or virus in culture. The test is classed as cell-based. Particulars: 72 hours, relative to DMSO only control, n = 4.

The structures appear in SMILES notation.

As to `Cc1nnc(NC(=O)c2cn(-c3ccccc3)nc2-c2ccccc2C)o1` [MMV020320], the “Relative Bioluminescence (%)” value is, setting by setting: (2 µM compound) 47.21%; (10 µM compound) 0.21%.

As to `COc1ccccc1C(C)NCC(=O)Nc1cc(C(F)(F)F)ccc1Cl` (stereo not shown) [MMV020321], the “Relative Bioluminescence (%)” value (2 µM compound) stood at 118.65% and the “Relative Bioluminescence (%)” value (10 µM compound) is recorded as 131.13%.

In the case of `CC1CCCN(C(=O)C(C)Nc2cc(Cl)ccc2N2CCOCC2)C1` (stereo not shown) [MMV020388], the “Relative Bioluminescence (%)” value is 121.02% (2 µM compound) and 143.84% (10 µM compound).

In the case of `CC(C)C(C(=O)Nc1ccc(S(=O)(=O)N(C)C)cc1)c1ccc(Cl)cc1` (stereo not shown) [MMV020391], the “Relative Bioluminescence (%)” value is, setting by setting: (2 µM compound) 89.71%; (10 µM compound) 17.09%.

Regarding `Cc1ccc(Oc2ccc(NC(=O)CNc3ccccc3N3CCCC3=O)cc2)cc1` [MMV020512], the “Relative Bioluminescence (%)” value by setting is: (2 µM compound) 56.59%; (10 µM compound) 56.11%.

Consider `COc1ccccc1CNC(=O)c1cc(C2CC2)nc2c1cnn2C(C)C` [MMV020517], for which the “Relative Bioluminescence (%)” value is 97.70% (2 µM compound) and 63.10% (10 µM compound).

In the case of `Cc1cc2ccccc2n1CC(=O)N1CC(C(=O)N2CCCCC2)Oc2ccccc21` (stereo not shown) [MMV020520], the “Relative Bioluminescence (%)” value is, setting by setting: (2 µM compound) 108.71%; (10 µM compound) 127.42%.

For `O=C(NC1CC1)c1ccc(N2CCOc3ccc(Cl)cc32)s1` [MMV020537], the “Relative Bioluminescence (%)” value was found to be 116.22% (2 µM compound) and 146.04% (10 µM compound).

Regarding `CC(C)C(NC(=O)Cc1cccc2ccccc12)C(=O)Nc1cccc(C#N)c1` (stereo not shown) [MMV020591], the “Relative Bioluminescence (%)” value is recorded as 87.56% (2 µM compound) and 94.51% (10 µM compound).

Turning to `Cc1noc(C)c1C(=O)N1CCCC(c2[nH]c3c(C)cccc3c2-c2ccncc2)C1` (stereo not shown) [MMV020623], the “Relative Bioluminescence (%)” value runs as follows: (2 µM compound) 68.14%; (10 µM compound) 86.96%.

As to `COc1ccc(-c2cncc3ccc(C(=O)NCCCn4ccnc4)nc23)cc1` [MMV020670], the “Relative Bioluminescence (%)” value reads like this: (2 µM compound) 96.09%; (10 µM compound) 97.66%.

Consider `COc1ccc(Cl)cc1NC(=O)CN(C)C(=O)c1cnn(-c2ccccc2)n1` [MMV020710], for which the “Relative Bioluminescence (%)” value is 102.08% (2 µM compound) and 128.98% (10 µM compound).

In the case of `CC(C)(C)c1cc(C(=O)Nc2cccnc2)cc(C(=O)Nc2cccnc2)c1` [MMV020982], the “Relative Bioluminescence (%)” value is, setting by setting: (2 µM compound) 109.38%; (10 µM compound) 93.07%.

`c1ccc(-c2nc(NC3CCCCC3)cc(C3CC3)n2)nc1` [MMV021013]: the “Relative Bioluminescence (%)” value stood at 11.73% (2 µM compound) and 1.47% (10 µM compound).

As for `CO/C=C(/C(=O)OC)c1ccccc1Oc1cc(Oc2ccccc2C#N)ncn1` [MMV021057, Azoxystrobin], the “Relative Bioluminescence (%)” value was 62.63% (2 µM compound) and 55.66% (10 µM compound).

Consider `Cc1cc(NCC(C)C)c2[nH]nc(-c3ccccc3)c2n1` [MMV021375], for which the “Relative Bioluminescence (%)” value turned out to be 68.90% (2 µM compound) and 58.94% (10 µM compound).

For the compound `Cc1cc(NCCc2ccccc2)nc(NC(=N)Nc2ccc(Cl)cc2)n1` [MMV021660], the “Relative Bioluminescence (%)” value reads like this: (2 µM compound) 89.16%; (10 µM compound) 56.67%.

Regarding `CN1CCC(NCc2cccc(-c3ccc(S(=O)(=O)NCc4ccccc4)cc3)c2)CC1` [MMV022029], the “Relative Bioluminescence (%)” value worked out at 99.81% (2 µM compound) and 101.70% (10 µM compound).

Turning to `CCN(CC)CCCN1CCN(C(=O)c2cccc(-c3noc(C(F)(F)F)n3)c2)CC1` [MMV022236], the “Relative Bioluminescence (%)” value runs as follows: (2 µM compound) 74.51%; (10 µM compound) 94.61%.

Consider `O=C(Nc1ccc(N2CCNCC2)cc1)c1ccn2ncc(-c3cccc(Cl)c3)c2n1` [MMV022478], for which the “Relative Bioluminescence (%)” value is, setting by setting: (2 µM compound) 88.45%; (10 µM compound) 5.54%.

Turning to `c1ccc2c(c1)CN(CC1CC1)CC1(CCN(Cc3c[nH]c4cnccc34)CC1)O2` [MMV023183], the “Relative Bioluminescence (%)” value is on record as 103.26% (2 µM compound) and 84.53% (10 µM compound).

Consider `Cc1nc(-c2cccc(NCc3ccccc3)c2)[nH]c1C` [MMV023227], for which the “Relative Bioluminescence (%)” value (2 µM compound) amounted to 80.48% and the “Relative Bioluminescence (%)” value (10 µM compound) was determined as 64.23%.

In the case of `Nc1nccc2ccc(-c3ccc4nccn4c3)cc12` [MMV023233], the “Relative Bioluminescence (%)” value runs as follows: (2 µM compound) 106.85%; (10 µM compound) 120.49%.

`Nc1ncc(-c2cn[nH]c2)cc1-c1nc2cc(Cl)cnc2[nH]1` [MMV023370]: the “Relative Bioluminescence (%)” value (2 µM compound) is reported as 62.35% and the “Relative Bioluminescence (%)” value (10 µM compound) came out at 54.43%.

Turning to `O=C(NC1CCN(c2ccnc3ccccc23)C1)c1cccc(C(F)(F)F)c1` (stereo not shown) [MMV023388], the “Relative Bioluminescence (%)” value runs as follows: (2 µM compound) 84.10%; (10 µM compound) 76.22%.

Consider `NS(=O)(=O)c1cccc(-c2ccc3ncc(N4CCOCC4)nc3c2)c1` [MMV023860], for which the “Relative Bioluminescence (%)” value is reported as 79.77% (2 µM compound) and 74.37% (10 µM compound).

`CC(C)(C)c1cc(C(=O)N2CCN(c3nccnc3C#N)CC2)n(Cc2ccccc2)n1` [MMV023949]: the “Relative Bioluminescence (%)” value (2 µM compound) is recorded as 80.37% and the “Relative Bioluminescence (%)” value (10 µM compound) stood at 52.45%.

Regarding `O=C(Nc1cccc(-c2ccc(NCCCN3CCCC3)nc2)c1)c1ccccc1` [MMV023953], the “Relative Bioluminescence (%)” value is, setting by setting: (2 µM compound) 85.42%; (10 µM compound) 83.96%.

Consider `c1cncc(NCc2ccc(-c3cc4ccncc4cc3OC3CCNCC3)s2)c1` [MMV023969], for which the “Relative Bioluminescence (%)” value runs as follows: (2 µM compound) 76.39%; (10 µM compound) 74.16%.

On to `COc1ccc(-c2cnc3ccc(N4CCCC4)nn23)cc1OC` [MMV023985], for which the “Relative Bioluminescence (%)” value (2 µM compound) was 57.95% and the “Relative Bioluminescence (%)” value (10 µM compound) is on record as 46.63%.

Turning to `O=C(Nc1ccccc1)c1ccc(-c2cc3ccncc3cc2OC2CCNCC2)s1` [MMV024035], the “Relative Bioluminescence (%)” value (2 µM compound) was determined as 86.60% and the “Relative Bioluminescence (%)” value (10 µM compound) amounted to 79.61%.

Take `NS(=O)(=O)c1cncc(-c2ccc3nccc(-c4cn[nH]c4)c3n2)c1` [MMV024101]: the “Relative Bioluminescence (%)” value (2 µM compound) turned out to be 98.92% and the “Relative Bioluminescence (%)” value (10 µM compound) amounted to 49.51%.

In the case of `Cc1ccc(S(=O)(=O)n2cc(-c3ccnc(N)c3)c3cc(Br)cnc32)cc1` [MMV024114], the “Relative Bioluminescence (%)” value by setting is: (2 µM compound) 103.63%; (10 µM compound) 69.99%.

With `CN(C)CCNC(=O)N1CCCN(c2ncnc3cc(-c4ccccc4)sc23)CC1` [MMV024195], the “Relative Bioluminescence (%)” value runs as follows: (2 µM compound) 89.61%; (10 µM compound) 76.61%.

Take `Cc1ccc2[nH]c(C3CCCNC3)c(-c3ccncc3)c2c1` (stereo not shown) [MMV024311]: the “Relative Bioluminescence (%)” value (2 µM compound) was determined as 109.56% and the “Relative Bioluminescence (%)” value (10 µM compound) was 88.36%.

Turning to `O=C(NC1CC1)c1ccc(N2CCC(Cc3ccccc3)CC2)nc1` [MMV024397], the “Relative Bioluminescence (%)” value runs as follows: (2 µM compound) 92.24%; (10 µM compound) 86.39%.

`O=C(Nc1cccc(Cl)c1)c1cnc(N2CCN(c3ccncc3)CC2)c(Cl)c1` [MMV024406]: the “Relative Bioluminescence (%)” value turned out to be 85.94% (2 µM compound) and 93.72% (10 µM compound).

Consider `CN(C(=O)c1cc2c(-c3cncnc3)cccc2[nH]1)c1ccccc1` [MMV024443], for which the “Relative Bioluminescence (%)” value (2 µM compound) is 64.75% and the “Relative Bioluminescence (%)” value (10 µM compound) was 32.60%.

(Values after article PMC6057649, “Development of NanoLuc-PEST expressing Leishmania mexicana as a new drug discovery tool for axenic- and intramacrophage-based assays” (PLoS Neglected Tropical Diseases, 2018).)
